Results taken from US4505929A, “Sulfur-substituted diphenyl ethers having antiviral activity” (The Dow Chemical Company, priority 1982, dated 1985).
In brackets after ≈: the same amount, converted by molar mass. Like-named read-outs stand apart in the source and are kept apart here.

Legend:
Type in all cases: cell-based
[1] = test system: Coxsackie A21 virus (Cox A21); experiment: Tissue culture antiviral test (HeLa cells), Cox A21; conditions: 48 and 72 hours post-treatment, read-out: Lowest concentration necessary to cause a 50 percent reduction in cytopathic effect, Cox A21
Description: (§1) Monolayered HeLa cells in 16 millimeter (mm) tissue culture dishes were treated with 1 ml of culture medium (Eagles medium supplemented with fetal calf serum) containing subject compound at an appropriate concentration or containing no compound at all. Culture media such as those described herein are more fully described in standard texts, as for example, Kuchler's Biochemical Methods in Cell Culture and Virology, Dowden, Hutchinson and Ross, Inc., Stroudsberg, PA (1977). Following treatment, cells were challenged with 0.05 ml of rhinovirus type 1A (RV-1A), rhinovirus type 2 (RV-2) or Coxsackie A21 virus (Cox A21) in culture medium. Some of the compounds were also tested against rhinovirus type 5 (RV-5), rhinovirus type 8 (RV-8) or rhinovirus type 64 (RV-64). Cell controls received no viruses.
(§2) ^xx Lowest concentration of the compound (μg/ml) necessary to caus
(§3) a 50 percent reduction in cytopathic effect.

rhinovirus type 2 (RV-2) = experiment: Tissue culture antiviral test (HeLa cells), RV-2; conditions: Enterovirus, 48 and 72 hours post-treatment, read-out: Lowest concentration necessary to cause a 50 percent reduction in cytopathic effect, RV-2
Description: as §1, §2, §3

[2] = test system: rhinovirus type 1A (RV-1A); experiment: Tissue culture antiviral test (HeLa cells), RV-1A; conditions: Enterovirus, 48 and 72 hours post-treatment, read-out: Lowest concentration necessary to cause a 50 percent reduction in cytopathic effect, RV-1A
Description: as §1, §2, §3

[3] = Cytotoxicity to HeLa cells in tissue culture testing; conditions: human
Description: as §1
^x Cytotoxicity figures represent the concentration of the compound,
micrograms/milliliter (μg/ml) found to be toxic to the cell.
means "approximately "; "<<" "considerably less than " and "G.I." means

rhinovirus type 5 (RV-5) = experiment: Tissue culture antiviral test (HeLa cells), RV-5; conditions: Enterovirus, 48 and 72 hours post-treatment, read-out: Lowest concentration necessary to cause a 50 percent reduction in cytopathic effect, RV-5
Description: as §1, §2, §3

[4] = test system: rhinovirus type 64 (RV-64); experiment: Tissue culture antiviral test (HeLa cells), RV-64; conditions: Enterovirus, 48 and 72 hours post-treatment, read-out: Lowest concentration necessary to cause a 50 percent reduction in cytopathic effect, RV-64
Description: as §1, §2, §3

rhinovirus type 8 (RV-8) = experiment: Tissue culture antiviral test (HeLa cells), RV-8; conditions: Enterovirus, 48 and 72 hours post-treatment, read-out: Lowest concentration necessary to cause a 50 percent reduction in cytopathic effect, RV-8
Description: as §1, §2, §3

[5] = concentration found to be toxic to the cell, observed at 48 and 72 hours, read-out: Cytotoxicity
[6] = G.I. = growth inhibition: at the concentration shown the compound inhibited growth of the tissue culture, read-out: Cytotoxicity (G.I.)

Row | Structure (SMILES) | EC50 [1] [µg/mL] | EC50 (rhinovirus type 2 (RV-2)) [µg/mL] | EC50 [2] [µg/mL] | MCC [3, 5] [µg/mL] | MCC [3, 6] [µg/mL] | EC50 (rhinovirus type 5 (RV-5)) [µg/mL] | EC50 [4] [µg/mL] | EC50 (rhinovirus type 8 (RV-8)) [µg/mL]
1 | CSc1ccc(Oc2ccc(C#N)cc2)cc1 [Example 5, 4-(4-(Methylthio)phenoxy)benzonitrile] | < 3.12 | < 3.12 | < 3.12 | 6.25 |  |  |  | 
2 | C[S+]([O-])c1ccc(Oc2ccc([N+](=O)[O-])cc2[N+](=O)[O-])cc1 (centres unmarked) [Example 30, 1-(4-(Methylsulfinyl)phenoxy)-2,4-dinitrobenzene] | 6.25 (≈ 19.4 µM) | ~6.25 (≈ 19.4 µM) |  | 12.5 |  |  |  | 
3 | CSc1ccc(Oc2ccc([N+](=O)[O-])cc2[N+](=O)[O-])cc1 [Example 28, 1-(4-(Methylthio)phenoxy)-2,4-dinitrobenzene] | ≤ 6.25 | < 6.25 | ≤ 6.25 |  | 50 to 100 |  |  | 
4 | CCN(CC)S(=O)(=O)c1ccc(Oc2ccc(S(=O)(=O)C(F)(F)F)cc2)cc1 [Example 26, N,N-Diethyl-4-(4-((trifluoromethyl)sulfonyl)phenoxy)benzenesulfonamide] | ≤ 0.3 | 0.3 (≈ 0.686 µM) | 0.312 (≈ 0.714 µM) | 0.625 |  | 0.625 (≈ 1.43 µM) | 0.625 (≈ 1.43 µM) | ≤ 0.312
5 | Cc1cc(Oc2ccc(Cl)c(Cl)c2)ccc1S(C)(=O)=O [Example 19, 4-(3-Methyl-4-(methylsulfonyl)phenoxy)-1,2-dichlorobenzene] |  | 6.25 (≈ 18.9 µM) | < 3.12 | > 50 |  | 12.5 (≈ 37.7 µM) | < 3.12 | 
6 | CS(=O)(=O)c1ccc(Oc2ccc([N+](=O)[O-])cc2[N+](=O)[O-])cc1 [Example 31, 1-(4-(Methylsulfonyl)phenoxy)-2,4-dinitrobenzene] | ≤ 6.25 | ~12.5 (≈ 36.9 µM) | ~12.5 (≈ 36.9 µM) | 25 |  |  |  | 
7 | CCN(CC)CCOc1ccc(Oc2ccc(S(C)(=O)=O)cc2)cc1 [Example 24] |  |  | 1.25 (≈ 3.44 µM) | ≤ 20 |  | 2.5 (≈ 6.88 µM) |  | 
8 | C[S+]([O-])c1ccc(Oc2ccc([N+](=O)[O-])cc2)cc1 (centres unmarked) [Example 29, 1-(Methylsulfinyl)-4-(4-nitrophenoxy)benzene] | < 6.25 | ≤ 6.25 | ≤ 6.25 | 25 |  |  |  | 
9 | O=S(=O)(c1ccccc1)c1ccc(Oc2ccc(Cl)c(Cl)c2)cc1 [Example 10, 4-(4-(Phenylsulfonyl)phenoxy)-1,2-dichlorobenzene] | 6.25 (≈ 16.5 µM) | 6.25 (≈ 16.5 µM) |  | 50 |  |  |  | 
10 | CS(=O)(=O)c1ccc(Oc2ccc(Br)cc2)cc1 [Example 9, 1-Bromo-4-(4-(methylsulfonyl)phenoxy)benzene] | < 3.12 | < 3.12 | < 3.12 | 12.5 |  | 12.5 (≈ 38.2 µM) |  | 12.5 (≈ 38.2 µM)
11 | CS(=O)(=O)c1ccc(Oc2ccc(Cl)cc2)cc1 [Example 2, 4-(4-(Methylsulfonyl)phenoxy)-1-chlorobenzene] | 0.625 (≈ 2.21 µM) | 1.25 (≈ 4.42 µM) | 1.25 (≈ 4.42 µM) |  | 10 |  |  | 
12 | CS(=O)(=O)c1ccc(Oc2ccc(Cl)c(Cl)c2)c(C#N)c1 [Example 17, 2-(3,4-Dichlorophenoxy)-5-(methylsulfonyl)benzonitrile] | 12.5 (≈ 36.5 µM) | 25 (≈ 73.1 µM) | 12.5 (≈ 36.5 µM) | > 100 |  |  |  | 
13 | CS(=O)(=O)c1ccc(Oc2ccc(Cl)c(Cl)c2)c(N)c1 [Example 16, 2-(3,4-Dichlorophenoxy)-5-(methylsulfonyl)benzenamine] | 6.25 (≈ 18.8 µM) | 6.25 (≈ 18.8 µM) | < 6.25 | ≤ 6.25 |  |  |  | 
14 | C[S+]([O-])c1ccc(Oc2ccc(C#N)cc2)cc1 (centres unmarked) [Example 7, 4-(4-(Methylsulfinyl)phenoxy)benzonitrile] | 3.12 (≈ 12.1 µM) | 3.12 (≈ 12.1 µM) | 3.12 (≈ 12.1 µM) | 25 |  |  |  | 
15 | CS(=O)(=O)c1ccc(Oc2ccc(C(=O)c3ccccc3)cc2)cc1 [Example 4, (4-(4-(Methylsulfonyl)phenoxy)phenyl)phenylmethanone] | < 6.25 | 50 (≈ 142 µM) |  | > 100 |  |  | 100 (≈ 284 µM) | 
16 | CCN(CC)S(=O)(=O)c1ccc(Oc2ccc(S(C)(=O)=O)cc2)cc1 [Example 13, N,N-Diethyl-4-(4-(methylsulfonyl)phenoxy)benzenesulfonamide] | 25 (≈ 65.2 µM) |  | 50 (≈ 130 µM) |  | 100 |  |  | 
17 | CS(=O)(=O)c1ccc(Oc2ccc(Cl)c(Cl)c2)c([N+](=O)[O-])c1 [Example 15, 4-(4-(Methylsulfonyl)-2-nitrophenoxy)-1,2-dichlorobenzene] |  | 6.25 (≈ 17.3 µM) |  | > 100 |  |  |  | 
18 | CN(C)S(=O)(=O)c1ccc(Oc2ccc(S(C)(=O)=O)cc2)cc1 [Example 12, N,N-Dimethyl-4-(4-(methylsulfonyl)phenoxy)benzenesulfonamide] | 50 (≈ 141 µM) |  |  |  | 100 |  |  | 
19 | O=S(=O)(c1ccc(Oc2ccc(Cl)c(Cl)c2)cc1)C(F)(F)F [Example 25, 4-(4-((Trifluoromethyl)sulfonyl)phenoxy)-1,2-dichlorobenzene] | < 3.12 | 6.25 (≈ 16.8 µM) | 12.5 (≈ 33.7 µM) | > 50 |  |  |  | 
20 | CSc1ccc(Oc2ccc([N+](=O)[O-])cc2)cc1 [Example 27, 1-(Methylthio)-4-(4-nitrophenoxy)benzene] | ≤ 6.25 | ≤ 6.25 | 6.25 (≈ 23.9 µM) | 12.5 |  |  |  | 
21 | CS(=O)(=O)c1ccc(Oc2ccc(Cl)c(Cl)c2)c(Cl)c1 [Example 14, 4-(2-Chloro-4-(methylsulfonyl)phenoxy)-1,2-dichlorobenzene] | 12.5 (≈ 35.5 µM) | ≤ 6.25 | 12.5 (≈ 35.5 µM) | 50 |  |  |  | 
22 | CS(=O)(=O)c1ccc(Oc2ccc([N+](=O)[O-])cc2)cc1 [Example 32, 1-(Methylsulfonyl)-4-(4-nitrophenoxy)benzene] | < 6.25 | ≤ 6.25 | 12.5 (≈ 42.6 µM) | 50 |  |  |  | 
23 | CN(C)S(=O)(=O)c1ccc(Oc2ccc(S(=O)(=O)c3ccccc3)cc2)cc1 [Example 11, N,N-Dimethyl-4-(4-(phenylsulfonyl)phenoxy)benzenesulfonamide] | 0.625 (≈ 1.5 µM) | 0.625 (≈ 1.5 µM) | 0.625 (≈ 1.5 µM) | 1.25 |  |  |  | 
24 | CS(=O)(=O)c1ccc(Oc2ccc(O)cc2)cc1 [Example 21, 4-(4-(Methylsulfonyl)phenoxy)phenol] |  | ~25 (≈ 94.6 µM) | ~25 (≈ 94.6 µM) | 25 |  |  |  | 
25 | COc1ccc(Oc2ccc(S(C)(=O)=O)cc2)cc1 [Example 18, 4-(4-(Methylsulfonyl)phenoxy)-1-methoxybenzene] | 25 (≈ 89.8 µM) | 12.5 (≈ 44.9 µM) | 6.25 (≈ 22.5 µM) | > 50 |  |  | 12.5 (≈ 44.9 µM) | 
26 | CS(=O)(=O)c1ccc(Oc2ccc(OC(F)(F)C(Cl)Cl)cc2)cc1 [Example 22, 1-(2,2-Dichloro-1,1-difluoroethoxy)-4-(4-(methylsulfonyl)phenoxy)benzene] | 0.625 (≈ 1.57 µM) | 1.25 (≈ 3.15 µM) | 2.5 (≈ 6.29 µM) | 2.5 |  | ~1.25 (≈ 3.15 µM) |  | 
27 | C[S+]([O-])c1ccc(Oc2ccc(Cl)c(Cl)c2)cc1 (centres unmarked) [Example 6, 1,2-Dichloro-4-(4-(methylsulfinyl)phenoxy)benzene] |  | < 0.31 | < 0.31 | 12.5 |  |  | < 0.31 | 
